US6270389A, “Method for forming an electron-emitting device using a metal-containing composition” (priority 1995, dated 2001)

Tests used:
[1] = Thermogravimetric analysis (TG) in the air; type: physicochemical; conditions: for Decomp. Start.: Table 1
[2] = Electron-emitting characteristics of device measured with measurement evaluation apparatus; conditions: Table 1
Text: FIG. 4 is a schematic block diagram of an arrangement comprising a vacuum chamber that can be used as a measuring system for determining the performance of an electron-emitting device of the type under consideration.
Referring to FIG. 4, those components that are similar to or same as those of FIGS. 1A and 1B are denoted by the same reference symbols. The measuring system includes a vacuum chamber 45 and a vacuum pump 46. An electron-emitting device is placed in the vacuum chamber 45. The device comprises a substrate 1, a pair of device electrodes 2 and 3, an electroconductive thin film 4 and an electron-emitting region 5. Otherwise, the measuring system has a power source 41 for applying a device voltage Vf to the device, an ammeter 40 for metering the device current If running through the thin film 4 between the device electrodes 2 and 3, an anode 44 for capturing the emission current Ie produced by electrons emitted from the electron-emitting region of the device, a high voltage source 43 for applying a voltage to the anode 44 of the measuring system and another ammeter 42 for metering the emission current Ie produced by electrons emitted from the electron-emitting region 5 of the device. For determining the performance of the electron-emitting device, a voltage between 1 and 10 KV may be applied to the anode, which is spaced apart from the electron emitting device by distance H which is between 2 and 8 mm.
The electron-emitting characteristics of the electron-emitting device formed as described above were evaluated by using the measurement evaluation apparatus in FIG. 4. Note that, in this example, the distance between an anode and the electron-emitting device was set to be 4 mm, and the potential of the anode was set to be 1 kV. The degree of vacuum in the vacuum apparatus in measurement of the electron-emitting characteristics was 10^-8 torr.
The measurement evaluation apparatus described above was used, and a device voltage was applied across the electrodes 2 and 3 of the electron-emittingdevice. When a device current If and an emission current Ie flowing at this time were measured, current-voltage characteristics shown in FIG. 5 were obtained. In this device, the emission current Ie began to increase from a device voltage of about 6.3 V, and the device current If became 1.9 mA at the device voltage of 14 V. At this time, the emission current Ie of 0.7 μA was obtained.
The electron-emitting characteristics of the device manufactured as described above were measured. FIG. 4 is a schematic view showing the arrangement of a measurement evaluation apparatus. Reference numerals in FIG. 4 follow the reference numerals in the above examples. Note that, in this example, the distance between an anode and the electron-emitting device was set to be 4 mm, the potential of the anode was set to be 1 KV, and the degree of vacuum in a vacuum apparatus in measurement of the electron-emitting characteristics was set to be 10^-6 torr.
The measurement evaluation apparatus described above was used, and a device voltage was applied across the electrodes 2 and 3 of the electron-emittingdevice. When a device current If and an emission current Ie flowing at this time were measured, current-voltage characteristics shown in FIG. 5 were obtained. In the device in this example, the emission current Ie begun to sharply increase from a device voltage of about 8 V, the device current If and the emission current Ie respectively became 2.3 mA and 1.2 μA at the device voltage of 16 V, and electron-emitting efficiency .eta.=Ie/If (%) was 0.05%.
Note that, in this example, the distance between an anode and the electron-emitting device was set to be 4 mm, the potential of the anode was set to be 1 KV, and the degree of vacuum in a vacuum apparatus in measurement of the electron-emitting characteristics was set to be 10^-7 torr. […]

[3] = water
[4] = X-ray diffraction
[5] = scanning type differential thermal analysis in the air

Compound	Decomp. Start. [1] [°C]	Ie [2] [mA]	Ie/If [2] [%]	If [2] [mA]	Solubility [3] [Pdwt %]	temperature at which decomposition ended ([1]; TG in the air) [°C]	also measured
CC(=O)[O-].CC(=O)[O-].NCCCO.NCCCO.NCCCO.NCCCO.[Pd+2] [Ex. 19]	173	1.1	0.041	2.7			
CC(=O)[O-].CC(=O)[O-].NCCCCO.NCCCCO.NCCCCO.NCCCCO.[Pd+2] [Ex. 20]	186		0.052	2.3	10.5		
CC(=O)[O-].CC(=O)[O-].CNCCO.CNCCO.[Pd+2] [Ex. 22]	155	1.3	0.045	2.9	16.0		
CC(=O)[O-].CC(=O)[O-].CCNCCO.CCNCCO.[Pd+2] [Ex. 23]	153	1.1	0.042	2.6	8.4		
CC(=O)[O-].CC(=O)[O-].CCCNCCO.CCCNCCO.[Pd+2] [Ex. 24]	154	1.0	0.038	2.6	4.0		
CC(=O)[O-].CC(=O)[O-].CC(C)NCCO.CC(C)NCCO.[Pd+2] [Ex. 25]	155	1.1	0.039	2.8	3.7		
CC(=O)[O-].CC(=O)[O-].CC(C)(C)NCCO.CC(C)(C)NCCO.[Pd+2] [Ex. 26]	166	1.0	0.040	2.5	0.7		
CC(=O)[O-].CC(=O)[O-].NCCCO.NCCCO.[Ni+2] [NAMP, nickel acetate-bis(3-amino-propanol)]						393	
CC(=O)[O-].CC(=O)[O-].CC(O)CN.CC(O)CN.[Ni+2] (centres unmarked) [NAMiP, nickel acetate-bis(1-amino-2-propanol)]						406	
CC(=O)[O-].CC(=O)[O-].CNCCO.CNCCO.[Ni+2] [NANME, nickel acetate-bis(N-methylethanolamine)]						379	
NCCO.NCCO.NCCO.O.O.O=C[O-].O=C[O-].[Ni+2] [NFME, nickel formate-tris(ethanolamine)-2-hydrate]						403	
CC(=O)[O-].CC(=O)[O-].NCCO.NCCO.NCCO.NCCO.[Pd+2] [PA-ME, palladium acetate-monoethanolamine complex]						310	decomposition start temperature ([1]; TG in the air): 100 °C; sublimation properties ([1]; TG in the air): no sublimation properties; residue weight at 350° C., in words ([1]; TG in the air, 350° C.): equal to a theoretical weight; crystallinity of dried thin film [4]: non-crystallized; decomposition temperature [5]: 272 °C
nickel acetate-bis(N-butylethanolamine) [NABE]						395	
palladium acetate bis(dipropylamine) [reference compound]							palladium lost in thermal decomposition ([1]; TG in the atmosphere): 29%; weight reduction end temperature ([1]; TG in the atmosphere): 250 °C; weight reduction start temperature ([1]; TG in the atmosphere): 122 °C; residue weight at 350° C. relative to theoretical weight ([1]; TG in the atmosphere, 350° C.): 71%
palladium acetate-bis(N,N-dibutylethanolamine) [PADBE]						253	
palladium acetate-di(N-butylethanolamine) [PABE]						245	
palladium acetate-diethanolamine complex [PA-DE]						305	decomposition start temperature ([1]; TG in the air): 100 °C; sublimation properties ([1]; TG in the air): no sublimation properties
